Laboratory results: patent US6362369B1, “Phthalic acid diamide derivatives fluorine-containing aniline compounds as starting material, agricultural and horticultural insecticides, and a method for application of the insecticides” (Nihon Nohyaku Co., Ltd., priority 1997, dated 2002)

Tests used:
Type in all cases: in vivo
[1] = tested on: common cutworm (Spodoptera Litura); experiment: Insecticidal effect on common cutworm (Test Example 2); details: 500 ppm, 25° C.; for Insecticidal effect (Test Example 2), judged from mortality / Insecticidal effect on common cutworm (Test Example 2), judged grade: cabbage leaf dip; for Insecticidal effect (Test Example 2), judged from mortality: 8 days after inoculation; for Insecticidal effect, Test Example 2: cabbage leaf immersed; for Insecticidal effect, Test Example 2 / Insecticidal effect on common cutworm (Test Example 2), judged grade: eight days after inoculation; for Insecticidal effect on common cutworm (Test Example 2), judged grade: second-instar larvae
Summary of the method: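 Insecticidal effect was rated from percent mortality of second-instar larvae exposed to air-dried treatment at 25° C for 8 days.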

[2] = tested on: diamondback moth (Plutella xylostella); experiment: Insecticidal effect on diamondback moth (Test Example 1); details: for Insecticidal effect (Test Example 1), judged from mortality / Insecticidal effect, Test Example 1: diamondback moth; for Insecticidal effect (Test Example 1), judged from mortality: judged by the criterion of Test Example 1; for Insecticidal effect on diamondback moth (Test Example 1), judged grade: mortality judged according to the criterion shown in Test Example 1
Summary of the method: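 Oviposition by adults on Chinese cabbage seedling; immersion; air-dry; 25° C room. Count of hatched larvae at day 6 post-immersion → mortality → effect graded by criterion. Triplicate, 10 insects/group.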

[3] = tested on: rice leafroller (Cnaphalocrocis medinalis); experiment: Insecticidal effect on rice leafroller (Test Example 3); details: 500 ppm, 25° C., humidity 70%; for Insecticidal effect (Test Example 3), judged from mortality / Insecticidal effect on rice leafroller (Test Example 3), judged grade: rice lamina dip; for Insecticidal effect (Test Example 3), judged from mortality: 4 days after inoculation; for Insecticidal effect, Test Example 3: rice lamina immersed; for Insecticidal effect, Test Example 3 / Insecticidal effect on rice leafroller (Test Example 3), judged grade: four days after inoculation; for Insecticidal effect on rice leafroller (Test Example 3), judged grade: third-instar larvae
Summary of the method: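 Insecticidal effect is judged by a predefined criterion from dead/alive counts four days after infesting air-dried lamina with third-instar larvae, kept on moistened filter paper at 25° C, 70% humidity.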

[4] = second-instar larvae of common cutworm
[5] = third-instar larvae of rice leafroller
[6] = common cutworm second-instar larvae
[7] = mortality judged by criterion of Test Example 1
[8] = rice leafroller third-instar larvae
[9] = judged by the mortality criterion of Test Example 1

## Cc1cc(C(F)(F)C(F)(F)F)ccc1NC(=O)c1cccc(Cl)c1C(=O)NC(C)(C)C#Cc1cccs1 [compound 1479]
[1]; [4]
  Insecticidal effect (Test Example 2), judged from mortality: A (100)
[2]
  Insecticidal effect (Test Example 1), judged from mortality: A (100)
[3]; [5]
  Insecticidal effect (Test Example 3), judged from mortality: A (100)

## COCC(C)NC(=O)c1c(I)cccc1C(=O)Nc1ccc(C(F)(F)C(F)(F)F)cc1C (stereo not drawn) [compound 1031]
[1]; [6]
  Insecticidal effect, Test Example 2: A (100)
[2]; [7]
  Insecticidal effect, Test Example 1: A (100)
[3]; [8]
  Insecticidal effect, Test Example 3: A (100)

## Cc1cc(I)ccc1NC(=O)c1c(F)cccc1C(=O)NC(C)C [compound 547]
[1]
  Insecticidal effect on common cutworm (Test Example 2), judged grade: A (100)
[2]
  Insecticidal effect on diamondback moth (Test Example 1), judged grade: A (100)
[3]
  Insecticidal effect on rice leafroller (Test Example 3), judged grade: D (79-50)

## CCC(C)(C)NC(=O)c1c(I)cccc1C(=O)Nc1ccc(OC(F)F)cc1C [compound 1568]
[1]; [4]
  Insecticidal effect (Test Example 2), judged from mortality: A (100)
[2]
  Insecticidal effect (Test Example 1), judged from mortality: A (100)
[3]; [5]
  Insecticidal effect (Test Example 3), judged from mortality: A (100)

## CCN(CC)C(=O)c1c(I)cccc1C(=O)Nc1ccc2c(c1)OC(F)(F)C(F)O2 (stereo not drawn) [compound 1167]
[1]; [6]
  Insecticidal effect, Test Example 2: A (100)
[2]; [7]
  Insecticidal effect, Test Example 1: A (100)
[3]; [8]
  Insecticidal effect, Test Example 3: A (100)

## Cc1cc(OC(F)F)ccc1NC(=O)c1c(Br)cccc1C(=O)NC(C)C [compound 325]
[1]; [4]
  Insecticidal effect, Test Example 2: A (100)
[2]; [9]
  Insecticidal effect, Test Example 1: A (100)
[3]; [5]
  Insecticidal effect, Test Example 3: A (100)

## Cc1cc(I)ccc1NC(=O)c1cccc(F)c1C(=O)NC(C)C [compound 492]
[1]
  Insecticidal effect on common cutworm (Test Example 2), judged grade: A (100)
[2]
  Insecticidal effect on diamondback moth (Test Example 1), judged grade: A (100)
[3]
  Insecticidal effect on rice leafroller (Test Example 3), judged grade: A (100)

## Cc1cc(Oc2ncc(C(F)(F)F)cc2Cl)ccc1NC(=O)c1cccc(F)c1C(=O)NC(C)C [compound 524]
[1]
  Insecticidal effect on common cutworm (Test Example 2), judged grade: A (100)
[2]
  Insecticidal effect on diamondback moth (Test Example 1), judged grade: A (100)
[3]
  Insecticidal effect on rice leafroller (Test Example 3), judged grade: A (100)

## COCCCNC(=O)c1c(I)cccc1C(=O)Nc1ccc(C(F)(F)C(F)(F)F)cc1C [compound 985]
[1]; [6]
  Insecticidal effect, Test Example 2: A (100)
[2]; [7]
  Insecticidal effect, Test Example 1: A (100)
[3]; [8]
  Insecticidal effect, Test Example 3: A (100)

## Cc1cc(OC(F)(F)Br)ccc1NC(=O)c1cccc(Cl)c1C(=O)NC(C)C [compound 140]
[1]; [4]
  Insecticidal effect, Test Example 2: A (100)
[2]; [9]
  Insecticidal effect, Test Example 1: A (100)
[3]; [5]
  Insecticidal effect, Test Example 3: A (100)

## Cc1cc(C(F)(F)C(F)(F)F)ccc1NC(=O)c1cccc(Cl)c1C(=O)NC(C)c1cccc(Cl)c1 (stereo not drawn) [compound 1364]
[1]; [6]
  Insecticidal effect, Test Example 2: A (100)
[2]; [7]
  Insecticidal effect, Test Example 1: A (100)
[3]; [8]
  Insecticidal effect, Test Example 3: A (100)

## CC(C)NC(=O)c1c(C(=O)Nc2ccc(OC(F)(F)C(F)OC(F)(F)C(F)(F)C(F)(F)F)cc2)cccc1[N+](=O)[O-] (stereo not drawn) [compound 619]
[1]
  Insecticidal effect on common cutworm (Test Example 2), judged grade: A (100)
[2]
  Insecticidal effect on diamondback moth (Test Example 1), judged grade: A (100)
[3]
  Insecticidal effect on rice leafroller (Test Example 3), judged grade: A (100)

## Cc1cc(C(F)(F)C(F)(F)F)ccc1NC(=O)c1cccc(I)c1C(=O)N(C)Cc1ccccc1 [compound 1438]
[1]; [6]
  Insecticidal effect, Test Example 2: A (100)
[2]; [7]
  Insecticidal effect, Test Example 1: A (100)
[3]; [8]
  Insecticidal effect, Test Example 3: A (100)

## Cc1cc(OC(F)(F)C(F)F)ccc1NC(=O)c1cccc(Br)c1C(=O)NC(C)C [compound 293]
[1]; [4]
  Insecticidal effect, Test Example 2: A (100)
[2]; [9]
  Insecticidal effect, Test Example 1: A (100)
[3]; [5]
  Insecticidal effect, Test Example 3: A (100)

## CC(C)NC(=O)c1c(C(=O)Nc2cccc(C(F)(F)F)c2)cccc1[N+](=O)[O-] [compound 607]
[1]
  Insecticidal effect on common cutworm (Test Example 2), judged grade: A (100)
[2]
  Insecticidal effect on diamondback moth (Test Example 1), judged grade: A (100)
[3]
  Insecticidal effect on rice leafroller (Test Example 3), judged grade: A (100)

## Cc1c(NC(=O)c2cccc(Cl)c2C(=O)NC(C)C)cccc1OC(F)(F)C(F)Cl (stereo not drawn) [compound 142]
[1]; [4]
  Insecticidal effect, Test Example 2: A (100)
[2]; [9]
  Insecticidal effect, Test Example 1: A (100)
[3]; [5]
  Insecticidal effect, Test Example 3: B (99-90)

## CC(C)NC(=O)c1c(I)cccc1C(=O)Nc1ccc(-c2csc(C(F)(F)F)n2)cc1 [compound 1765]
[1]; [4]
  Insecticidal effect (Test Example 2), judged from mortality: A (100)
[2]
  Insecticidal effect (Test Example 1), judged from mortality: A (100)
[3]; [5]
  Insecticidal effect (Test Example 3), judged from mortality: A (100)

## CCN(CC)C(=O)c1c(Cl)cccc1C(=O)Nc1ccc(C(F)(F)C(F)(F)F)cc1Cl [compound 1540]
[1]; [4]
  Insecticidal effect (Test Example 2), judged from mortality: A (100)
[2]
  Insecticidal effect (Test Example 1), judged from mortality: A (100)
[3]; [5]
  Insecticidal effect (Test Example 3), judged from mortality: A (100)

## CC(C)(C)NC(=O)c1c(I)cccc1C(=O)Nc1ccc(C(F)(F)C(F)(F)F)cc1Br [compound 1562]
[1]; [4]
  Insecticidal effect (Test Example 2), judged from mortality: A (100)
[2]
  Insecticidal effect (Test Example 1), judged from mortality: A (100)
[3]; [5]
  Insecticidal effect (Test Example 3), judged from mortality: A (100)

## Cc1cc(OC(F)(F)Br)ccc1NC(=O)c1cccc(I)c1C(=O)NC(C)C [compound 389]
[1]; [4]
  Insecticidal effect, Test Example 2: A (100)
[2]; [9]
  Insecticidal effect, Test Example 1: A (100)
[3]; [5]
  Insecticidal effect, Test Example 3: A (100)

## C#CC(C)(C)NC(=O)c1c(I)cccc1C(=O)Nc1ccc(OC(F)F)cc1C [compound 1635]
[1]; [4]
  Insecticidal effect (Test Example 2), judged from mortality: A (100)
[2]
  Insecticidal effect (Test Example 1), judged from mortality: A (100)
[3]; [5]
  Insecticidal effect (Test Example 3), judged from mortality: A (100)

## Cc1cc(OCC(F)(F)C(F)F)ccc1NC(=O)c1c(Br)cccc1C(=O)NC(C)C [compound 319]
[1]; [4]
  Insecticidal effect, Test Example 2: B (99-90)
[2]; [9]
  Insecticidal effect, Test Example 1: A (100)
[3]; [5]
  Insecticidal effect, Test Example 3: B (99-90)

## Cc1ccccc1NC(=O)c1cccc([N+](=O)[O-])c1C(=O)NC(C)C [compound 599]
[1]
  Insecticidal effect on common cutworm (Test Example 2), judged grade: D (79-50)
[2]
  Insecticidal effect on diamondback moth (Test Example 1), judged grade: A (100)
[3]
  Insecticidal effect on rice leafroller (Test Example 3), judged grade: A (100)

## Cc1cc(C(F)(F)C(F)(F)F)ccc1NC(=O)c1cccc(I)c1C(=O)NCC(F)(F)F [compound 1040]
[1]; [6]
  Insecticidal effect, Test Example 2: A (100)
[2]; [7]
  Insecticidal effect, Test Example 1: A (100)
[3]; [8]
  Insecticidal effect, Test Example 3: A (100)

## Cc1cc(OC(F)(F)C(F)F)c(Cl)cc1NC(=O)c1cccc(Cl)c1C(=O)NC(C)C [compound 152]
[1]; [4]
  Insecticidal effect, Test Example 2: A (100)
[2]; [9]
  Insecticidal effect, Test Example 1: A (100)
[3]; [5]
  Insecticidal effect, Test Example 3: A (100)

## Cc1ccc(Cl)cc1NC(=O)c1cccc([N+](=O)[O-])c1C(=O)NC(C)(C)C [compound 842]
[1]
  Insecticidal effect on common cutworm (Test Example 2), judged grade: A (100)
[2]
  Insecticidal effect on diamondback moth (Test Example 1), judged grade: A (100)
[3]
  Insecticidal effect on rice leafroller (Test Example 3), judged grade: D (79-50)

## CC(C)(C)NC(=O)c1c(I)cccc1C(=O)Nc1ccc(C(F)(F)F)cc1 [compound 939]
[1]; [6]
  Insecticidal effect, Test Example 2: A (100)
[2]; [7]
  Insecticidal effect, Test Example 1: A (100)
[3]; [8]
  Insecticidal effect, Test Example 3: A (100)

## CCN(CC)C(=O)c1cc(Cl)ccc1C(=O)Nc1ccc(C(F)(F)C(F)(F)F)cc1C [compound 1280]
[1]; [6]
  Insecticidal effect, Test Example 2: A (100)
[2]; [7]
  Insecticidal effect, Test Example 1: A (100)
[3]; [8]
  Insecticidal effect, Test Example 3: A (100)

## Cc1cc(OC(F)(F)C(F)(Cl)Cl)ccc1NC(=O)c1cccc(F)c1C(=O)NC(C)C [compound 502]
[1]
  Insecticidal effect on common cutworm (Test Example 2), judged grade: A (100)
[2]
  Insecticidal effect on diamondback moth (Test Example 1), judged grade: A (100)
[3]
  Insecticidal effect on rice leafroller (Test Example 3), judged grade: A (100)

## Cc1cc(C(F)(C(F)(F)F)C(F)(F)F)ccc1NC(=O)c1cccc(I)c1C(=O)NC(C)(C)C [compound 1039]
[1]; [6]
  Insecticidal effect, Test Example 2: A (100)
[2]; [7]
  Insecticidal effect, Test Example 1: A (100)
[3]; [8]
  Insecticidal effect, Test Example 3: A (100)

## COc1cccc(C(=O)Nc2ccc(OC(F)(F)F)cc2)c1C(=O)NC(C)C [compound 767]
[1]
  Insecticidal effect on common cutworm (Test Example 2), judged grade: C (89-80)
[2]
  Insecticidal effect on diamondback moth (Test Example 1), judged grade: A (100)
[3]
  Insecticidal effect on rice leafroller (Test Example 3), judged grade: A (100)
